Reference: patent US12371454B2, “Cyclic peptide compound having Kras inhibitory action” (priority 2019, dated 2025)
Starred links: 1 amine or outer side, 2 acyl side, 3 side chain; linkers in the order of their positions; H or OH if unused. Positions of bridges follow the written chain, without caps; N, C: chain ends. Non-standard residues stand in square brackets, D forms with d. Residues, ends and D or L forms follow the SMILES beside them. *: point of attachment. hPhe(3-Cl-4-CF3) = N[C@@H](CCc1ccc(C(F)(F)F)c(Cl)c1)C(=O)O; NMePhe(4-Cl) = CN[C@@H](Cc1ccc(Cl)cc1)C(=O)O; NMePhe(4-Me) = CN[C@@H](Cc1ccc(C)cc1)C(=O)O; NMedβ3hAla = C[C@H](CC(=O)[*:2])N(C)[*:1]; NMeGly(cPent) = CN[C@H](C(=O)O)C1CCCC1; Phe(2-OMe) = COc1ccccc1C[C@H](N)C(=O)O; Phe(3-I) = N[C@@H](Cc1cccc(I)c1)C(=O)O; NMeCha = CN[C@@H](CC1CCCCC1)C(=O)O; NMeGly(cPr) = CN[C@H](C(=O)O)C1CC1; NMeChg = CN[C@H](C(=O)O)C1CCCCC1; NMeF = CN[C@@H](Cc1ccccc1)C(=O)O; NMeD = CN[C@@H](CC(=O)O)C(=O)O; dNMeD = CN[C@H](CC(=O)O)C(=O)O; NMeL = CN[C@@H](CC(C)C)C(=O)O; NMeV = CN[C@H](C(=O)O)C(C)C; NMeA = CN[C@@H](C)C(=O)O; NMeAib = CNC(C)(C)C(=O)O; Piperidide = C1CCN(*)CC1; Pyrrolidide = C1CCN(*)C1; Ac5c = NC1(C(=O)O)CCCC1; Aze = O=C(O)[C@@H]1CCN1; Sar = CNCC(=O)O

biological target: T1, Kras and SOS1 (biotin-tagged human Kras loaded with GDP, His-tagged human SOS1) (Homo sapiens, UniProt P01116, G12D); assay: Protein-protein interaction inhibition between Kras and SOS1 (KrasGl2D-SOS PPI) using AlphaScreen; type: binding; conditions: AlphaScreen; biotin-tagged human Kras loaded with GDP, His-tagged human SOS1; read-out: KRAS G12D-SOS PPI IC50
T1 construct: made in house; host or cells: E. coli (stated for Kras only)
T1 sequence (P01116 1-188 isoform P01116-2 G12D): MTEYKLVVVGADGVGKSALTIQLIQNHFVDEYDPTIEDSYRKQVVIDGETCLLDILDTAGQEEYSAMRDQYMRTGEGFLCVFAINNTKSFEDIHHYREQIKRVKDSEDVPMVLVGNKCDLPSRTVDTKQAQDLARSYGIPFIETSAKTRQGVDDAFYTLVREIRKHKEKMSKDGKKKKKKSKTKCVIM
Method in brief: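 Kras was produced in E. coli, purified, then loaded with GDP. It was paired via streptavidin acceptor beads with His-SOS1 held on nickel donor beads, and proximity signal at 520-620 nm was read after 680 nm illumination.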

**Q.** How did the IC50 turn out when `CC(C)C[C@H]1C(=O)N[C@@H](CO)C(=O)N(C)[C@@H](C)C(=O)N2CC[C@H]2C(=O)N(C)[C@@H](CC2CCCCC2)C(=O)N(C)CC(=O)N[C@@H](CCc2ccc(C(F)(F)F)c(Cl)c2)C(=O)N2CCC[C@H]2C(=O)NC2(CCCC2)C(=O)N(C)[C@@H](C(C)C)C(=O)N(C)[C@H](C(=O)N2CCCCC2)CC(=O)N1C` [Compound 1768] ([NMeL]S[NMeA][Aze][NMeCha][Sar][hPhe(3-Cl-4-CF3)]P[Ac5c][NMeV][NMeD]-Piperidide; lactam N-11) was run?
**A.** 140 nM

**Q.** Which IC50 does the source give for `CC[C@H](C)[C@@H]1NC(=O)[C@H](CC(C)C)N(C)C(=O)C[C@@H](C(=O)N2CCCCC2)N(C)C(=O)[C@H](CC(C)C)NC(=O)C(C)(C)N(C)C(=O)[C@H](Cc2ccccc2OC)NC(=O)[C@H](Cc2cccc(I)c2)NC(=O)CN(C)C(=O)[C@H](Cc2ccc(C)cc2)N(C)C(=O)CN(C)C(=O)CN(C)C1=O` [Compound 1100] ([NMeL]I[Sar][Sar][NMePhe(4-Me)][Sar][Phe(3-I)][Phe(2-OMe)][NMeAib]L[NMeD]-Piperidide; lactam N-11) here?
**A.** 6.3 nM

**Q.** For `CC[C@H](C)[C@@H]1NC(=O)[C@H](CC(C)C)N(C)C(=O)C[C@@H](C(=O)N2CCCCC2)N(C)C(=O)[C@H](C(C)C)N(C)C(=O)C2(CCCC2)NC(=O)[C@@H](C)NC(=O)[C@H](CCc2ccc(C(F)(F)F)c(Cl)c2)NC(=O)CN(C)C(=O)[C@H](CC2CCCCC2)N(C)C(=O)[C@@H]2CCN2C(=O)[C@H](C)N(C)C1=O` [Compound 1314] ([NMeL]I[NMeA][Aze][NMeCha][Sar][hPhe(3-Cl-4-CF3)][dA][Ac5c][NMeV][NMeD]-Piperidide; lactam N-11), which IC50 is on record?
**A.** 90 nM

**Q.** For `CC[C@H](C)[C@@H]1NC(=O)[C@H](CC(C)C)N(C)C(=O)C[C@@H](C(=O)N2CCCCC2)N(C)C(=O)[C@H](C2CCCCC2)N(C)C(=O)C2(CCCC2)NC(=O)[C@@H]2CCCN2C(=O)[C@H](CCc2ccc(C(F)(F)F)c(Cl)c2)NC(=O)CN(C)C(=O)[C@H](CC2CCCCC2)N(C)C(=O)CN(C)C(=O)[C@H](C)N(C)C1=O` [Compound 1345] ([NMeL]I[NMeA][Sar][NMeCha][Sar][hPhe(3-Cl-4-CF3)]P[Ac5c][NMeChg][NMeD]-Piperidide; lactam N-11), which IC50 is on record?
**A.** 40 nM

**Q.** Which IC50 does the source give for `CC[C@H](C)[C@@H]1NC(=O)[C@H](CC(C)C)N(C)C(=O)C[C@H](C(=O)N2CCCC2)N(C)C(=O)[C@H](C2CCCC2)N(C)C(=O)C2(CCCC2)NC(=O)[C@@H]2CCCN2C(=O)[C@H](CCc2ccc(C(F)(F)F)c(Cl)c2)NC(=O)CN(C)C(=O)[C@H](CC2CCCCC2)N(C)C(=O)CN(C)C(=O)CN(C)C1=O` [Compound 1794] ([NMeL]I[Sar][Sar][NMeCha][Sar][hPhe(3-Cl-4-CF3)]P[Ac5c][NMeGly(cPent)][dNMeD]-Pyrrolidide; lactam N-11) here?
**A.** 40 nM

**Q.** `CC[C@H](C)[C@@H]1NC(=O)[C@H](C)N(C)C(=O)C[C@@H](C(=O)N2CCCCC2)NC(=O)[C@H](CC(C)C)N(C)C(=O)[C@H](Cc2ccccc2)N(C)C(=O)[C@H](CC(C)C)NC(=O)[C@H](Cc2cccc(I)c2)NC(=O)CN(C)C(=O)[C@H](Cc2ccc(Cl)cc2)N(C)C(=O)CN(C)C(=O)CN(C)C1=O` [Compound 637] ([NMeA]I[Sar][Sar][NMePhe(4-Cl)][Sar][Phe(3-I)]L[NMeF][NMeL]D-Piperidide; lactam N-11) was tested. Which IC50 did it give?
**A.** 26 nM

**Q.** With `CC[C@H](C)[C@@H]1NC(=O)[C@H](CC(C)C)N(C)C(=O)C[C@@H](C)N(C)C(=O)[C@H](C2CC2)N(C)C(=O)C2(CCCC2)NC(=O)[C@@H]2CCCN2C(=O)[C@H](CCc2ccc(C(F)(F)F)c(Cl)c2)NC(=O)CN(C)C(=O)[C@H](CC2CCCCC2)N(C)C(=O)CN(C)C(=O)CN(C)C1=O` [Compound 874] (cyclo([Ac5c][NMeGly(cPr)][NMedβ3hAla][NMeL]I[Sar][Sar][NMeCha][Sar][hPhe(3-Cl-4-CF3)]P)) as the compound, how does the IC50 read?
**A.** 25 nM
